pEC50: −log10 of the molar value. Where two headings read alike, the source gives them in different places.
How the values were obtained:
human OPRM1 (μ, MOR) [1] = biological target: T1, human OPRM1 (μ, MOR) (Homo sapiens (Human), UniProt P35372); assay: cell-based; type: cell-based; details: for pEC50: PathHunter human OPRM1 Arrestin CHO-K1 cell line, read-out: β-Arrestin EC50; for Emax: OPRM1, read-out: β-Arrestin Emax
Experimental: The technology is based on Enzyme Fragment Complementation (EFC) with β-galactosidase (β-Gal) as the reporter. […] EA is fused to β-arrestin-2, and ED is fused to the C-terminus of the GPCR of interest. When a ligand binds and the GPCR is activated, β-arrestin-2 is recruited to the receptor resulting in an ED/EA complementation, restoring β-Gal activity, which is measured using chemiluminescence. For this assay, the PathHunter human OPRM1 (μ, MOR) Arrestin CHO-K1 cell line was used.

human OPRM1 (μ, MOR) [2] = biological target: T1, human OPRM1 (μ, MOR); assay: cell-based; type: cell-based; details: for pEC50: PathHunter human OPRM1 Arrestin CHO-K1 cell line, read-out: cAMP EC50; for Emax: OPRM1, read-out: cAMP Emax
Experimental: G-protein signaling was measured via second messenger cAMP modulation. Detection of cAMP modulation was accomplished in the PathHunter human OPRM1 (μ, MOR) Arrestin CHO-K1 cell line using the Dynamic2 cAMP Kit from Cisbio.

MOR [3] = biological target: T2, MOR (Homo sapiens (Human), UniProt P35372); type: cell-based; details: for ΔRA of compound: β-arrestin vs cAMP, from EC50 and Emax
Experimental: In certain embodiments, the ability of a compound to activate G-protein or β-arrestin is not an on/off switch for a given pathway, but rather a continuous function. To capture this, each compound is measured for activity in cell assays that are linked to β-arrestin recruitment and G-protein signaling. By comparing the activity between these two measures (accounting for both EC50 and maximal response reached, Emax) a relative activity (RA) value is determined.
In the case of MOR it is desirable to have high activation of the G-protein pathway while reducing activation of β-arrestin.

[4] = Respiratory depression test (O2 partial pressure); details: rat, SC, at 30 minutes, vehicle 96 mm Hg
intestinal transit = assay: Gastrointestinal motility (charcoal transit); details: rat, SC
Experimental: At 30 minutes post subcutaneous dosing, the animals were given a suspension of 5% charcoal in 10% gum arabic solution (2 ml/animal p.o.) and sacrificed 15 minutes later. The intestine was removed, and the length of the gut in cm (GL) as well as extent of charcoal movement from the pylorus to the beginning of the charcoal column in cm (CP) was measured.
Intestinal transit (IT) was calculated as IT=(CP/GL)×100%. A 30% or more (30) increase or decrease intestinal transit (IT), relative to the vehicle control group, was considered significant. The values in animals treated with test compounds compared with vehicle control group were also analyzed by using one-way ANOVA followed by Dunnett's test. Differences are considered statistically significant at P<0.05.

tail flick response = assay: Rat tail flick nociceptive pain model; type: in vivo; details: SC
Experimental: In rodents, the tail flick response to radiant heat is commonly used as a model to detect potentially useful analgesic agents.
Procedurally, the time (seconds) required to elicit a tail flick response induced by focused radiant heat is measured as the pain threshold in groups of 8 Sprague-Dawley (SD) male rats weighing 110±20 g. Prolongation by 50 percent or more (≥50) of the time required to elicit a tail flick response 15 and 30 minutes following administration of test substance indicates possible analgesic activity. Also, one-way ANOVA followed by Dunnett's test is applied for comparison between vehicle control and treatment groups.

sedation = assay: Accelerating RotaRod (sedation); details: rat, SC
place preference = assay: Conditioned place preference; details: rat, SC
From the text: Although a number of different designs and apparatuses are used in this model, the basic characteristics of this task involve the association of a particular environment with drug treatment, followed by the association of a different environment with the absence of the drug (i.e., the drug's vehicle). A common variation of this design consists of a three-compartment chamber with the outer compartments being designed to have different characteristics (e.g., white vs. black walls, pine vs. corn bedding, horizontal grid vs. cross-grid flooring). […] On the following day, the rat is injected with the drug's vehicle and then placed in the opposite compartment. […] Afterward, a test session is conducted, which consists of placing the animal in the center compartment and then, after opening the gates to both of the outer compartments, recording the time the animal spends in each of the outer compartments during the session.
In certain embodiments, there are three days of adaptation where any preferences are assessed. Then, compartment assignments for drug or saline are based on any existing preferences. […] There are 8 days of training followed by the test day when both compartments are accessible and the computer counts how much time is spent in the respective compartment.

[5] = patients following bunionectomy; cited from earlier work
MOR [6] = biological target: T2, MOR; details: cell-based assays; cited from earlier work
[7] = healthy volunteers; cited from earlier work
MOR [8] = biological target: T2, MOR; details: vs morphine; cited from earlier work

Structure (SMILES)	pEC50 (human OPRM1 (μ, MOR) [1])	pEC50 (human OPRM1 (μ, MOR) [2])	Bias Factor (ΔRA of compound relative to ΔRA of DAMGO) × 10 (MOR [3])	ΔRA of compound (MOR [3])	Emax (human OPRM1 (μ, MOR) [1]) [%]	Emax (human OPRM1 (μ, MOR) [2]) [%]	also measured
CN(C)C[C@H]1CN(Cc2ccc(F)cc2Cl)CC[C@]1(O)c1cccc(C(N)=O)c1 (single isomer, unassigned; ent-a) [Ent-A-syn-(6)]	5.50	6.79	−0.92	−1.63	–	–	β-Arrestin Emax (human OPRM1 (μ, MOR) [1]): 60%; cAMP Emax (human OPRM1 (μ, MOR) [2]): 132%
CN(C)C[C@@H]1CN(Cc2ccc(F)cc2Cl)CC[C@@]1(O)c1cccc(C(N)=O)c1 (single isomer, unassigned; ent-b) [Ent-B-syn-(6), Ent-B-syn 3-(1-(2-chloro-4-fluorobenzyl)-3-((dimethylamino)methyl)-4-hydroxypiperidin-4-yl)benzamide]	5.44	6.33	−1.06	−1.65	–	–	β-Arrestin Emax (human OPRM1 (μ, MOR) [1]): 20%; cAMP Emax (human OPRM1 (μ, MOR) [2]): 111%
CN(C)CC1CN(Cc2ccc(F)cc2Cl)CCC1(O)c1cccc(C(N)=O)c1 (centres unmarked) [(6), 3-[1-(2-Chloro-4-fluoro-benzyl)-3-dimethylaminomethyl-4-hydroxy-piperidin-4-yl]-benzamide]	5.59	6.99	−2.89	−1.83	40	107	–
CN(C)CC1CN(CCc2ccccc2)CCC1(O)c1cccc(C(N)=O)c1 (centres unmarked) [(9), 3-(3-Dimethylaminomethyl-4-hydroxy-1-phenethyl-piperidin-4-yl)-benzamide]	6.08	7.47	−6.76	−2.22	18	118	–
CN(C)CC1CN(Cc2ccsc2)CCC1(O)c1cccc(C(N)=O)c1 (centres unmarked) [(11), 3-(3-Dimethylaminomethyl-4-hydroxy-1-thiophen-3-ylmethyl-piperidin-4-yl)-benzamide]	4.97	6.26	−2.31	−1.77	37	112	–
CN(C)CC1CN(CCc2ccsc2)CCC1(O)c1cccc(C(N)=O)c1 (centres unmarked) [(15), 3-(3-((Dimethylamino)methyl)-4-hydroxy-1-(2-(thiophen-3-yl)ethyl)piperidin-4-yl)benzamide]	< 4.00	7.17	–	–	< 10	95	–
COc1ccc(CCN2CCC(O)(c3cccc(C(N)=O)c3)C(CN(C)C)C2)cc1 (centres unmarked) [(17), 3-(3-((Dimethylamino)methyl)-4-hydroxy-1-(4-methoxyphenethyl)piperidin-4-yl)benzamide]	< 4.00	6.33	–	–	< 10	84	–
CN(C)CC1CN(CCc2ccc(O)cc2)CCC1(O)c1cccc(C(N)=O)c1 (centres unmarked) [(18), 3-(3-((Dimethylamino)methyl)-4-hydroxy-1-(4-hydroxyphenethyl)piperidin-4-yl)benzamide]	5.51	6.80	−3.73	−1.91	24	103	–
CN(C)CC1CN(CCCc2ccccc2)CCC1(O)c1cccc(C(N)=O)c1 (centres unmarked) [(20), 3-[3-Dimethylaminomethyl-4-hydroxy-1-(3-phenyl-propyl)-piperidin-4-yl]-benzamide]	6.57	8.00	−7.37	−2.28	14	103	–
CN(C)C[C@H]1CN(CCCc2ccc(F)cc2Cl)CC[C@]1(O)c1cccc(C(N)=O)c1 [(23a), 3-((3S,4R)-1-(3-(2-Chloro-4-fluorophenyl)propyl)-3-((dimethylamino)methyl)-4-hydroxypiperidin-4-yl)benzamide]	–	–	–	–	–	–	O2 partial pressure ([4]; 4.5 mg/kg): the same O2 partial pressure as vehicle; O2 partial pressure ([4]; 18 mg/kg): the same O2 partial pressure as vehicle; Reduction in transit relative to vehicle (intestinal transit; 4.5 mg/kg): no significant reduction in transit; Reduction in transit relative to vehicle (intestinal transit; 18 mg/kg): small reduction in transit; Dose to reach the ED80 of morphine in rat tail flick (tail flick response): 4.5 mg/kg; Sedation, accelerating RotaRod (sedation; 4.5 mg/kg): no sedation; Sedation, accelerating RotaRod (sedation; 18 mg/kg): no sedation; Preference for drug chamber over saline chamber (place preference; 18 mg/kg): no preference for the (23a) chamber over the saline chamber
CN(C)C[C@H]1CN(CCc2ccsc2)CC[C@]1(O)c1cccc(C(N)=O)c1 [(41a), 3-((3S,4R)-3-((Dimethylamino)methyl)-4-hydroxy-1-(2-(thiophen-3-yl)ethyl)piperidin-4-yl)benzamide]	–	–	–	–	–	–	O2 partial pressure ([4]; 5 mg/kg): the same O2 partial pressure as vehicle; O2 partial pressure ([4]; 20 mg/kg): the same O2 partial pressure as vehicle; Reduction in transit relative to vehicle (intestinal transit; 5 mg/kg): no significant reduction in transit; Reduction in transit relative to vehicle (intestinal transit; 20 mg/kg): no significant reduction in transit; Dose to reach the ED80 of morphine in rat tail flick (tail flick response): 5 mg/kg; Sedation, accelerating RotaRod (sedation; 5 mg/kg): no sedation; Sedation, accelerating RotaRod (sedation; 20 mg/kg): no sedation; Preference for drug chamber over saline chamber (place preference; 20 mg/kg): no preference for the (41a) chamber over the saline chamber
C[C@@H](NC(=O)[C@@H](N)Cc1ccc(O)cc1)C(=O)NCC(=O)N(C)[C@@H](Cc1ccccc1)C(=O)NCCO [DAMGO, H-Tyr-D-Ala-Gly-NMe-Phe-Gly-OH, reference compound]	–	–	–	–	98	–	–
COc1ccsc1CNCC[C@@]1(c2ccccn2)CCOC2(CCCC2)C1 [oliceridine, N-[(3-methoxythiophen-2-yl)methyl]-2-[(9R)-9-pyridin-2-yl-6-oxaspiro[4.5]decan-9-yl]ethanamine]	–	–	–	–	–	–	Level of analgesia [5]: higher level of analgesia; β-arrestin recruitment Emax (MOR [6]): 14%; On-target adverse effects (such as nausea, and decrease in respiratory drive) [7]: decreased on-target adverse effects; G-protein signaling Emax (MOR [8]): 83%
